This note sets out measurements from BindingDB's records for doi:10.1074/jbc.M114.556480 (Yale University, 2014).

Non-standard residues stand in square brackets, D forms with d. Residues, ends and D or L forms follow the SMILES beside them. pY = N[C@@H](Cc1ccc(OP(=O)(O)O)cc1)C(=O)O

In this assay the target is T1, Tyrosine-protein kinase ABL1 [131-238] (Human, UniProt P00519).
T1 construct: 131-238
T1 sequence (P00519 whole entry): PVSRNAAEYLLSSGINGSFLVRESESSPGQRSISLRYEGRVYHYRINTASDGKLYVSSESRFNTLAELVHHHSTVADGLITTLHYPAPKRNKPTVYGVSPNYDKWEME
Description: Fluorescence Polarization Assay. The conditions noted are these: pH 7.25. How it is done: SH2 domains were dialyzed into binding buffer (50 mM Hepes, pH 7.25, 150 mM NaCl, 0.01% Nonidet P-40, 5% glycerol) and a 30-μl volume serially diluted into pre-chilled 384-well low flange black flat bottom non-binding microplates (Corning) while on ice. 5 μl of 35 nM fluorescent peptide dissolved in binding buffer was added to each well (final concentration 5 nM), mixed 5 times by pipetting, and plates were incubated at 4 °C for 40 min. Fluorescence polarization experiments were performed with an Analyst AD (Molecular Devices, Sunnyvale, CA) spectrofluorimeter. Each well was excited using 485 nm light and emission was read at 530 nm. Fluorescence polarization was measured 1 mm from the bottom of each well with an integration time of 560 ms. All experiments were conducted in triplicate.
(In fluorescence polarisation assays a small probe gives low polarisation when free and higher when bound to something large.)
What is called Kd is the constant that tells how readily two partners part at equilibrium. Low readings indicate a tighter complex, high ones a looser complex. The molecule `C[C@@H](O)[C@H](NC(=O)[C@H](CC(=O)O)NC(=O)[C@H](CC(=O)O)NC(=O)[C@@H](N)CCC(=O)O)C(=O)N[C@@H](Cc1ccc(OP(=O)(O)O)cc1)C(=O)N[C@@H](CC(=O)O)C(=O)NCC(=O)N[C@@H](Cc1ccc(O)cc1)C(=O)N[C@@H](CCC(=O)O)C(=O)O` [EDDTpYDGYE] (H-EDDT[pY]DGYE-OH) showed an equilibrium dissociation constant (Kd) of over 61.9 µM.

As to `CC(C)[C@H](NC(=O)[C@@H]1CCCN1C(=O)[C@H](CCC(=O)O)NC(=O)[C@@H](N)CO)C(=O)N[C@@H](Cc1ccc(OP(=O)(O)O)cc1)C(=O)N[C@@H](CCC(=O)O)C(=O)N[C@H](C(=O)N[C@H](C(=O)N[C@@H](CCC(=O)O)C(=O)O)[C@@H](C)O)[C@@H](C)O` [SEPVpYETTE] (H-SEPV[pY]ETTE-OH), the Kd turned out to be 3.27 µM.

The molecule `CC[C@H](C)[C@H](NC(=O)[C@@H]1CCCN1C(=O)[C@H](CO)NC(=O)[C@@H](N)CO)C(=O)N[C@@H](Cc1ccc(OP(=O)(O)O)cc1)C(=O)N[C@@H](CCC(=O)O)C(=O)N[C@@H](CC(=O)O)C(=O)N[C@@H](C)C(=O)N[C@@H](C)C(=O)O` [SSPIpYEDAA] (H-SSPI[pY]EDAA-OH) registered a Kd of 3.33 µM. This Kd and that of the molecule before are within 1.5-fold of each other.
